A short description of the data set: recombinant barcode read abundance after kanamycin selection (control-corrected) (log10(CPM+1)); higher = more efficient recombination; sequences stand for … in AGTGCAGAGAAAATCGGCCAGTTTTCTCTGCCTGCAGTCCGCATGCCGT…AGATTTATGCAGCGGACTGCCTTTCTCCCAAAGTGATAAACCGGACAGTATCATGGACCGGTTTTCCCGGTAATCCGTATTTGCAAGGTTGGTTTCACT; site = the 11-nt target. The protocol: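 Pooled E. coli target-specificity screen for the IS621 bridge recombinase. Each library plasmid pairs an 11-nt target (CT core) with a bridge RNA whose target-binding loop (9-nt LTG + 4-nt RTG) is reprogrammed; the rest of the 177-nt WT IS621 bridge RNA scaffold is fixed. The plasmid is co-electroporated with a WT donor plasmid; recombinase is induced with 0.1 mM IPTG and recombinants are selected on kanamycin. Recombinant barcodes are sequenced, converted to CPM, averaged over two biological replicates and corrected by the unselected control CPM. Molecule = full bridge RNA written as DNA: LTG = specificity nt 1-9, RTG = reverse complement of specificity nt 8-11, in the WT scaffold.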
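Also: IS621 recombinase and bridge RNA in Escherichia coli cells.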

For the sequence “ACACCGCCTTGGGTTCTAACCTGTTGCCT (site TCACCGCCTAG)”, the “recombinant barcode read abundance (log10)” value turned out to be 0.118.
As for “ACACGTGCTTGGGTTCTAACCTGTTGCGA (site ACACGTGCTTC)”, the figure is 1.46; as for “ACACGTGCTTGGGTTCTAACCTGTTGCGA (site CAGAAGTCTAA)”, 0.215; as for “ACACTAGCTTGGGTTCTAACCTGTTGCTG (site ACAATAGCTCA)”, 0.313.
Take “ACACTAGCTTGGGTTCTAACCTGTTGCTG (site ACACTAGCTCA)”: the “recombinant barcode read abundance (log10)” value was 1.19.
As for “ACACTAGCTTGGGTTCTAACCTGTTGCTG (site ACAGTAGCTCA)”, the figure is 0.445.
In the case of “ACACTAGCTTGGGTTCTAACCTGTTGCTG (site ACATTAGCTCA)”, the “recombinant barcode read abundance (log10)” value turned out to be 0.0774.
Next, “ACAGAGACTTGGGTTCTAACCTGTTGCGC (site ACAAAGACTGC)”: 0.372; “ACAGAGACTTGGGTTCTAACCTGTTGCGC (site ACACAGACTGC)”: 0.127; “ACAGAGACTTGGGTTCTAACCTGTTGCGC (site ACAGAGACTGC)”: 1.46.
With “ACAGAGACTTGGGTTCTAACCTGTTGCGC (site ACATAGACTGC)”, the “recombinant barcode read abundance (log10)” value is 0.221.
As for “ACAGCCTCTTGGGTTCTAACCTGTTGCCT (site ACAGCCTCTAG)”, the figure is 2.84; as for “ACAGCCTCTTGGGTTCTAACCTGTTGCCT (site ACAGGCTCTAG)”, 0.156.
Take “ACAGGCTCTTGGGTTCTAACCTGTTGCCT (site ACAGCCTCTAG)”: the “recombinant barcode read abundance (log10)” value was found to be 0.0406.
Next, “ACAGGCTCTTGGGTTCTAACCTGTTGCCT (site ACAGGCTCTAG)”: 1.82; “ACAGGTACTTGGGTTCTAACCTGTTGCCT (site ACAGGTACTAG)”: 1.18; “ACAGGTACTTGGGTTCTAACCTGTTGCCT (site CCAGGTACTAG)”: 0.428.
As for “ACAGGTACTTGGGTTCTAACCTGTTGCCT (site GCAGGTACTAG)”, the figure is 0.0917; as for “ACAGGTACTTGGGTTCTAACCTGTTGCCT (site TCAGGTACTAG)”, 0.456.
Next, “ACAGGTCCTTGGGTTCTAACCTGTTGCGA (site ACAGGTCCTTC)”: 3.05; “ACAGGTCCTTGGGTTCTAACCTGTTGCGA (site GTCATGTCTCA)”: 0.
“ACAGTATCTTGGGTTCTAACCTGTTGCTG (site ACAGTATCTCA)”: the “recombinant barcode read abundance (log10)” value came out at 0.479.
As for “ACAGTATCTTGGGTTCTAACCTGTTGCTG (site TGCAATACTAT)”, the figure is 0.
Next, “ACATAGTCTTGGGTTCTAACCTGTTGCCT (site ACATAGTCTAG)”: 1.75.
As for “ACATAGTCTTGGGTTCTAACCTGTTGCCT (site AGATACTCTAG)”, the “recombinant barcode read abundance (log10)” value turned out to be 0.0816.
Turning to “ACATATCCTTGGGTTCTAACCTGTTGCGT (site ACATATCCTAC)”, the “recombinant barcode read abundance (log10)” value was 1.78.
Next, “ACATATCCTTGGGTTCTAACCTGTTGCGT (site ACCTACCCTAC)”: 0.0409; “ACATGAACTTGGGTTCTAACCTGTTGCCT (site ACATGAACTAG)”: 1.47; “ACATGAACTTGGGTTCTAACCTGTTGCCT (site ACCTGAACTAG)”: 0.0918.
Next, “ACATGAACTTGGGTTCTAACCTGTTGCCT (site ACGTGAACTAG)”: 0.0989.
Next, “ACATGAACTTGGGTTCTAACCTGTTGCCT (site ACTTGAACTAG)”: 0.101.
For the sequence “ACATGCACTTGGGTTCTAACCTGTTGCAT (site ACATGAACTAT)”, the “recombinant barcode read abundance (log10)” value was determined as 0.0673.
As for “ACATGCACTTGGGTTCTAACCTGTTGCAT (site ACATGCACTAT)”, the figure is 1.05; as for “ACATGCACTTGGGTTCTAACCTGTTGCAT (site ACATGGACTAT)”, 0.0168; as for “ACATGCACTTGGGTTCTAACCTGTTGCAT (site ACATGTACTAT)”, 0.116.
For “ACATGTCCTTGGGTTCTAACCTGTTGCAT (site ACATGTCCTAA)”, the “recombinant barcode read abundance (log10)” value was found to be 0.374.
Next, “ACATGTCCTTGGGTTCTAACCTGTTGCAT (site ACATGTCCTAC)”: 1.24; “ACATGTCCTTGGGTTCTAACCTGTTGCAT (site ACATGTCCTAG)”: 0.137.
Turning to “ACATGTCCTTGGGTTCTAACCTGTTGCAT (site ACATGTCCTAT)”, the “recombinant barcode read abundance (log10)” value is 1.99.
Next, “ACATTGTCTTGGGTTCTAACCTGTTGCCT (site ACATTGTCTAG)”: 1.73; “ACATTGTCTTGGGTTCTAACCTGTTGCCT (site ACCTTGTCTAG)”: 0.0705; “ACATTGTCTTGGGTTCTAACCTGTTGCCT (site ACGTTGTCTAG)”: 0.0669.
On to “ACATTGTCTTGGGTTCTAACCTGTTGCCT (site ACTTTGTCTAG)”, for which the “recombinant barcode read abundance (log10)” value stood at 0.284.
Next, “ACATTTACTTGGGTTCTAACCTGTTGCCT (site ACATTTACTAG)”: 0.0855; “ACATTTACTTGGGTTCTAACCTGTTGCCT (site TCATATACTAG)”: 0.242.
For the sequence “ACATTTCCTTGGGTTCTAACCTGTTGCAT (site ACATTTCCTAT)”, the “recombinant barcode read abundance (log10)” value amounted to 0.8.
Next, “ACATTTCCTTGGGTTCTAACCTGTTGCAT (site TAGAACTCTGC)”: 0.105.
As for “ACCAAAGCTTGGGTTCTAACCTGTTGCCA (site ACCAAAGCTTG)”, the figure is 0.115.
As for “ACCAAAGCTTGGGTTCTAACCTGTTGCCA (site ACCACAGCTAG)”, the figure is 0.137; as for “ACCAAATCTTGGGTTCTAACCTGTTGCCG (site ACCAAATCTCG)”, 0.0782; as for “ACCAAATCTTGGGTTCTAACCTGTTGCCG (site ACCAAATCTTA)”, 0.0479.
Regarding “ACCAAGACTTGGGTTCTAACCTGTTGCCG (site ACCAAGACTCG)”, the “recombinant barcode read abundance (log10)” value was 0.373.
As for “ACCAAGACTTGGGTTCTAACCTGTTGCCG (site TCCAAGACTCT)”, the figure is 0.00901; as for “ACCAAGCCTTGGGTTCTAACCTGTTGCGG (site ACCAAGCCTCC)”, 1.36.
As for “ACCAAGCCTTGGGTTCTAACCTGTTGCGG (site GCCCAGCCTCC)”, the figure is 0.295; as for “ACCAATCCTTGGGTTCTAACCTGTTGCCT (site ACCAATACTAG)”, 0.087; as for “ACCAATCCTTGGGTTCTAACCTGTTGCCT (site ACCAATCCTAG)”, 0.21.
As for “ACCAATCCTTGGGTTCTAACCTGTTGCCT (site ACCAATGCTAG)”, the figure is 0.177; as for “ACCAATCCTTGGGTTCTAACCTGTTGCCT (site ACCAATTCTAG)”, 0.0626; as for “ACCAGGTCTTGGGTTCTAACCTGTTGCCT (site AACAGGTCTAG)”, 0.15.
As to “ACCAGGTCTTGGGTTCTAACCTGTTGCCT (site ACCAGGTCTAG)”, the “recombinant barcode read abundance (log10)” value worked out at 1.59.
As for “ACCAGGTCTTGGGTTCTAACCTGTTGCCT (site AGCAGGTCTAG)”, the figure is 0.208; as for “ACCAGGTCTTGGGTTCTAACCTGTTGCCT (site ATCAGGTCTAG)”, 0.09.
As for “ACCAGTCCTTGGGTTCTAACCTGTTGCTG (site ACCAGTCCTCA)”, the figure is 1.97.
Next, “ACCAGTCCTTGGGTTCTAACCTGTTGCTG (site ACCAGTCCTTA)”: 0.0735.
As to “ACCCAAACTTGGGTTCTAACCTGTTGCCT (site ACCCAAACTAG)”, the “recombinant barcode read abundance (log10)” value stood at 1.08.
As for “ACCCAAACTTGGGTTCTAACCTGTTGCCT (site ACCCAACCTAG)”, the figure is 0.0677; as for “ACCCAAACTTGGGTTCTAACCTGTTGCCT (site ACCCAAGCTAG)”, 0.161; as for “ACCCAAACTTGGGTTCTAACCTGTTGCCT (site ACCCAATCTAG)”, 0.0553.
Turning to “ACCCGCTCTTGGGTTCTAACCTGTTGCCT (site ACCCGCTCTAG)”, the “recombinant barcode read abundance (log10)” value was 0.542.
“ACCCGCTCTTGGGTTCTAACCTGTTGCCT (site TAGGATCCTTC)”: the “recombinant barcode read abundance (log10)” value worked out at 0.538.
Regarding “ACCCTAACTTGGGTTCTAACCTGTTGCGG (site ACCCTAACTCC)”, the “recombinant barcode read abundance (log10)” value came to 1.16.
Next, “ACCCTAACTTGGGTTCTAACCTGTTGCGG (site ACCTTAGCTCC)”: 0.

These data come from the supplement of paper PMC11208160.
